# According to PMC9818988, “SR Protein Kinase 1 Inhibition by TAF15” (Cells, 2022):
# How the values were obtained:
# SRPK1 [1] = experiment: In vitro kinase inhibition assay: phosphorylation of GST-LBRNt(62–92) by GST-SRPK1; assay type: biochemical; conditions: for Inhibition of SRPK1 activity (phosphorylation of GST-LBRNt(62–92) by GST-SRPK1): peptide 0.1, 0.2, 0.3, 0.4 and 0.5 mM, 25 μM ATP, autoradiography, bands counted, means ± SE of two independent experiments (Figure 8); for Inhibition of SRPK1 activity (phosphorylation of GST-LBRNt(62–92) by GST-SRPK1) / Effect of TAF15 fusion proteins on SRPK1 activity (phosphorylation of GST-LBRNt(62–92)): 30 °C, 30 min; for Relative inhibitory activity on SRPK1 among the three RGG peptides (proportional to number of RGG repeats): peptide 0.1–0.5 mM, substrate GST-LBRNt(62–92), two independent experiments (Figure 8B); for Effect of TAF15 fusion proteins on SRPK1 activity (phosphorylation of GST-LBRNt(62–92)): 1, 2, 4, 6, 8 μg GST-TAF15, 1.5, 3, 6, 10, 15 μg GST-TAF15-RGG, 2, 4, 8, 12, 16 μg GST-TAF15(1-320), 25 μL, [γ-32P]ATP, Cherenkof counting, two independent experiments
# Protocol: (§1) Kinase assays were carried out at 30 °C in a total volume of 25 μL containing 12 mM Hepes pH 7.5, 10 mM MgCl2, 25 μM ATP, 1–3 μg of the appropriate substrate (GST-LBRNt(62–92) or GST-TAF15 or His-TAF15), and 1–2 μg GST-SRPK1. For the inhibition assays, GST-SRPK1 was incubated with GST-LBRNt(62–92) under the assay conditions in the presence of increasing concentrations of GST-TAF15, GST-TAF15-RGG, and GST-TAF15(1–320) or Nucl, SAFA, and A2B1 peptides, as indicated. Nucl ([…]), SAFA ([…]) and A2B1 ([…]) peptides, comprising the RGG repeats of nucleolin, HNRPU (SAFA), and HNRNPA2B1, respectively, were provided by GeneCust, Boynes, France. The samples were incubated for 30 min, and the reaction was stopped by adding 6 μL of 5 × SDS sample buffer and heating at 95 °C for 3 min. Phosphoproteins were detected via autoradiography using Super RX (a Fuji medical X-ray film), and signals were quantified by excising the radioactive bands from the gel and scintillation counting. p-values were determined using a two-tailed, unpaired student’s t-test.
# SRPK1 [2] = experiment: In vitro phosphorylation of TAF15 as substrate by GST-SRPK1; assay type: biochemical; conditions: bacterially produced GST-SRPK1; GST-LBRNt(62–92) as positive substrate; autoradiography
# Protocol: as §1
# SRPK1 [3] = experiment: Pull-down of His-TAF15 with GST-SRPK1 immobilized on glutathione-Sepharose beads; assay type: binding; conditions: 60 min, room temperature, Coomassie blue staining
# Protocol: Incubation of GST and GST-SRPK1 (2–3 μg each) immobilized on glutathione-Sepharose beads with His-TAF15 (2 μg) was performed in 20 mm Hepes, pH 7.5, 50 mM NaCl, and 1% Triton X-100 in a total volume of 0.5 mL. Similar incubations were also performed in the presence of 150 and 300 mM NaCl to test the stringency of the interaction. The incubations were carried out for 60 min at room temperature. The beads were harvested, washed three times with 500 μL of binding buffer, and resuspended in 25 μL of SDS sample buffer. Bound His-TAF15 was analyzed on 10% SDS-polyacrylamide gels and detected by Coomassie Blue staining.
# SRPK1 [4] = experiment: Pull-down of SRPK1 from HeLa cell extracts with immobilized GST-TAF15 fusion proteins; assay type: binding; conditions: 150 mM NaCl, 1% Triton X-100, 60 min, room temperature; Western blot with anti-SRPK1
# Protocol: Incubation of GST, GST-TAF15, GST-TAF15(1–320), and GST-TAF15-RGG (2–3 μg each) immobilized on glutathione-Sepharose beads with HeLa cell extracts (∼200 μg of total protein) was performed in 50 mm Tris-HCl, pH 7.5, 150 mm NaCl, 1% Triton X-100, and 0.5 mm PMSF (cell extraction buffer) in a total volume of 0.5 mL for 60 min at room temperature. Bound SRPK1 was analyzed on 10% SDS-polyacrylamide gels and detected by Western blotting using the anti-SRPK1 monoclonal antibody (611072, BD Biosciences, San Jose, CA, USA), an alkaline phosphatase-coupled goat anti-mouse secondary antibody, and a 5-bromo-4-chloro-3-indolyl phosphate/nitro blue tetrazolium substrate.
molecule,measurement,setting,value
"RGGGRGGFGGRGGGRGGRGGFGGRGRGGFGGRGGFRGGRGG [Nucl, peptide comprising the RGG repeats of nucleolin, provided by GeneCust]",Inhibition of SRPK1 activity (phosphorylation of GST-LBRNt(62–92) by GST-SRPK1),SRPK1 [1],could inhibit SRPK1
same,Relative inhibitory activity on SRPK1 among the three RGG peptides (proportional to number of RGG repeats),SRPK1 [1],most potent inhibitory activity
"RGGNFGFGDSRGGGGNFGPGPGSNFRGG [A2B1, peptide comprising the RGG repeats of HNRNPA2B1, provided by GeneCust]",Inhibition of SRPK1 activity (phosphorylation of GST-LBRNt(62–92) by GST-SRPK1),SRPK1 [1],could inhibit SRPK1
same,Relative inhibitory activity on SRPK1 among the three RGG peptides (proportional to number of RGG repeats),SRPK1 [1],weaker
His-TAF15: full-length TAF15 with an 8xHis tag fused to its N-terminus,Phosphorylation of TAF15 by SRPK1 (substrate test),SRPK1 [2],unable to phosphorylate
same,Binding of TAF15 to GST-SRPK1 in pull-down,"SRPK1 [3]; increased salt, 0.3 M NaCl",reduced binding
same,Binding of TAF15 to GST-SRPK1 in pull-down,"SRPK1 [3]; physiological ionic strength, 50–150 mM NaCl",binds SRPK1
GST-TAF15: full-length TAF15 as GST-fusion protein produced in bacteria,Phosphorylation of TAF15 by SRPK1 (substrate test),SRPK1 [2],did not modify
same,Effect of TAF15 fusion proteins on SRPK1 activity (phosphorylation of GST-LBRNt(62–92)),SRPK1 [1],inhibited the phosphorylation of GST-LBRNt(62–92) in a dose-responsive manner
GST-TAF15-RGG: C-terminal RGG domain (aa 319–589) of TAF15 as GST-fusion protein,Effect of TAF15 fusion proteins on SRPK1 activity (phosphorylation of GST-LBRNt(62–92)),SRPK1 [1],inhibited SRPK1 as potently as full-length TAF15
same,Binding of SRPK1 from HeLa cell extracts to immobilized GST fusion protein,SRPK1 [4],could bind to SRPK1
"RGGGHRGRGGFNMRGGNFRGGAPGNRGGY [SAFA, peptide comprising the RGG repeats of HNRPU (SAFA), provided by GeneCust]",Inhibition of SRPK1 activity (phosphorylation of GST-LBRNt(62–92) by GST-SRPK1),SRPK1 [1],could inhibit SRPK1
"GST-TAF15(1–320): N-terminal part (aa 1–320) of TAF15 as GST-fusion protein (protein, left off: GST, end not stated, kept, N-terminal part (aa 1–320) of TAF15 as GST-fusion protein) MSDSGSYGQSGGEQQSYSTYGNPGSQGYGQASQSYSGYGQTTDSSYGQNYSGYSSYGQSYSQSYGGYENQKQSSYSQQPYNNQGQQQNMESSGSQGGRAPSYDQPDYGQQDSYDQQSGYDQHQGSYDEQSNYDQQHDSYSQNQQSYHSQRENYSHHTQDDRRDVSRYGEDNRGYGGSQGGGRGRGGYDKDGRGPMTGSSGGDRGGFKNFGGHRDYGPRTDADSESDNSDNNTIFVQGLGEGVSTDQVGEFFKQIGIIKTNKKTGKPMINLYTDKDTGKPKGEATVSFDDPPSAKAAIDWFDGKEFHGNIIKVSFATRRPE",Effect of TAF15 fusion proteins on SRPK1 activity (phosphorylation of GST-LBRNt(62–92)),SRPK1 [1],did not affect the kinase activity
same,Effect of TAF15 fusion proteins on SRPK1 activity (phosphorylation of GST-LBRNt(62–92)),SRPK1 [1]; listed as GST-TAF15(1-320),has no effect on SRPK1 activity
same,Binding of SRPK1 from HeLa cell extracts to immobilized GST fusion protein,SRPK1 [4],no such interaction
